Here are results for 3 compounds from patent publication US4616038A, “Combination of thienamycin-type antibiotics with dipeptidase inhibitors” (Merck & Co., Inc., priority 1985, dated 1986).

Each structure is given as a SMILES string. Like-named read-outs stand apart in the source and are kept apart here.

The nature of series [1]: Urinary recovery of thienamycin in the mouse with co-administered inhibitor. The class given is in vivo. The following applies: urine. As to the method: In addition to this in vitro screen procedure, an in vivo sreen was followed to measure the test compound's ability to inhibit metabolism as reflected by increase in urinary recovery of thienamycin from the mouse. The procedure involves co-administration of the test compound by the intravenous or subcutaneous route at a dose-rate of 10-100 mg/kg, with 10 mg/kg thienamycin. Thienamycin recovery in the urine over a 4 hour period is then compared with its recovery in a control group to which test compound was not coadministered.
Urinary recovery of thienamycin was measured in all cases with the use of a cylinder or disc diffusion assay, conducted in a manner described in U.S. Pat. No. 3,950,357. This bioassay, with Staphylococcus aureus ATCC 6538 as the test organism, has a useful response range from 0.04 μg/ml to 3.0 μg/ml.
An in vivo assay on the mouse was conducted as follows: 20 g Charles River CD, female mice were injected subcutaneously with the chosen dose of the chemical inhibitor. About two minutes later, the dose of thienamycin was given intravenously. A control of thienamycin above was also conducted. The level of thienamycin in the urine as a % of dose was measured using a bioassay technique. The two test compound numbers are those from Table I. Compound 7 is Z-2-isovaleramido-2-butenoicacid; compound 10 is Z-2-cyclopropylcarboxamido-2-butenoic acid. […]

Another series addresses T1, renal dipeptidase (Sus scrofa, UniProt P22412).
T1 construct: GPI-anchored disulfide-linked homodimer
T1 sequence (P22412 17-384): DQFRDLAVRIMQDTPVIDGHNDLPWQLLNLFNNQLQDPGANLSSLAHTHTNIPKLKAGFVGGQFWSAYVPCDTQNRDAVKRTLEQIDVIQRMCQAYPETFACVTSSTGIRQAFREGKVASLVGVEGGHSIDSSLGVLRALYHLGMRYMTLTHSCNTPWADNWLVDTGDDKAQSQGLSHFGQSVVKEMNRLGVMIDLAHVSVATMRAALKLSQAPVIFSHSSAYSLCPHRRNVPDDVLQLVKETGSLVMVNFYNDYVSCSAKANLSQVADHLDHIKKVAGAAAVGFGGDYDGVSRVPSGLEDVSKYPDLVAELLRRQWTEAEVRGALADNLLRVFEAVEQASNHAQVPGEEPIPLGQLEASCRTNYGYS
Description: Substrate affinity and maximal velocity of hydrolysis by renal dipeptidase. The class given is biochemical, hog. Particulars: GDP compared with thienamycin.

Another series deals with Staphalococcus aureus. Description: Systemic efficacy of thienamycin on the treatment of Staphylococcus aureus infections in the mouse. The following applies: coadministered with thienamycin. The class given is in vivo, Staphalococcus aureus (in mouse).
For series [2], the target named is T2, renal dipeptidase (E.C.3.4.13.11) (Sus scrofa, UniProt P22412).
T2 construct: solubilized preparation of dipeptidase isolated from hog kidneys; from tissue; host or cells: hog kidney
T2 sequence (P22412 17-409): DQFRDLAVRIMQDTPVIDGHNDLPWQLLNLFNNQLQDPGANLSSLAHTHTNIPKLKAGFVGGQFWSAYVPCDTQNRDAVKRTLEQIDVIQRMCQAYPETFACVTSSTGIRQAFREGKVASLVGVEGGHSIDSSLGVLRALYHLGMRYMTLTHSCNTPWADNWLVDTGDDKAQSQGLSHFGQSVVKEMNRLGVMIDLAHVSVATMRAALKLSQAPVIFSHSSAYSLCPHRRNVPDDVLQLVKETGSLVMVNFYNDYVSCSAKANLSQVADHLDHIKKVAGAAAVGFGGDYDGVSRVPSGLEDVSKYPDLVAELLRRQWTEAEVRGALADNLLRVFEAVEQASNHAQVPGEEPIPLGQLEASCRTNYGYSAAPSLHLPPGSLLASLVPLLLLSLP
Description: Inhibition of glycyldehydrophenylalanine (GDP) hydrolysis by renal dipeptidase in vitro. The class given is biochemical, pig (hog). Particulars: concentration producing 50% inhibition; substrate GDP 0.05 mM; pH 7.1; 37° C.; read-out: Ki. As for the experimental part: This measured the ability of compounds to inhibit hydrolysis of glycyldehydrophenylalanine (GDP) by a solubilized preparation of dipeptidase isolated from hog kidneys The procedure is as follows to a 1 ml. system containing 50 mM "MOPS" (3-(N-morpholino)propanesulfonic acid) buffer, pH 7.1, is added 5 μg of lyophilized enzyme, and the test compound at a final concentration of 0.1 mM. After a five minute incubation at 37° C., GDP is added to a final concentration of 0.05 mM. Incubation is continued for 10 minutes, at 37° C. and hydrolysis of GDP is measured by the change in optical density with time at 275 nm. Inhibition of the enzyme is gauged by comparison to a standard run containing no inhibitor and is expressed as the inhibitor binding constant, Ki.
A 1 ml. system of 50 mM "MOPS" buffer, pH 7.1, is used. To this is added 5 μg of the pig renal enzyme and an amount of the test compound to bring its final concentration to 0.1 mM. After a five minute incubation at 37° C., an amount of GDP is added to bring its final concentration to 0.05 mM. The system is again incubated for 10 minutes, at 37° C. Hydrolysis of GDP is measured by its change in optical density with time at 275 nm. Inhibition of the enzyme is gauged by comparison to a standard run containing no inhibitor and is presented as percent inhibition.

As for `C[C@@H](O)[C@H]1C(=O)N2C(C(=O)O)=C(SCCN)C[C@H]12` [Thienamycin], the dose excreted at 4 h in series [1] (Table III, THM alone 10 mg/kg IV or SC, read-out: Urinary Recovery of THM, %) is 30 ± 5%; in series [1] (Table IV, THM alone 10 mg/kg SC, read-out: Urinary Recovery THM, %), 30 ± 5%.
On to `NCC(=O)NC(=Cc1ccccc1)C(=O)O` [GDP, glycyldehydrophenylalanine], for which the “maximal velocity of hydrolysis by renal dipeptidase” value at renal dipeptidase is on record as “much higher maximal velocity of hydrolysis”.
Broadly, the Ki is the dissociation constant of the complex between target and ligand, obtained from inhibition or displacement. With `C/C=C(\NC(=O)CC(C)C)C(=O)O` [Compound 7, Z-2-isovaleramido-2-butenoic acid], the “enhancement of systemic antibacterial activity of thienamycin” value in the series on Staphalococcus aureus is listed as “approximately three-fold”. Besides, the Ki in series [2] is 6 µM.
